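Five compound concentrations were applied to cells in 96-well plates for 48 hours; endpoints were derived by simple linear interpolation of the resulting dose-response curve. Definition used: TGI = concentration required for complete inhibition of growth.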
Key:
Assay in all cases: inhibition of tumour cell growth, NCI panel, 48 h
[1] = tested on: HCC-2998 colon
[2] = tested on: OVCAR-8 ovarian
[3] = tested on: SK-MEL-2 melanoma
[4] = tested on: HT29 colon
[5] = tested on: IGROV1 ovarian
[6] = tested on: MOLT-4 leukemia
[7] = tested on: RXF 393 renal
[8] = tested on: LOX IMVI melanoma
[9] = tested on: 786-0 renal
[10] = tested on: NCI-H23 lung
[11] = tested on: MDA-N
[12] = tested on: HL-60(TB) leukemia
[13] = tested on: T-47D breast
[14] = tested on: U251 CNS
[15] = tested on: UACC-257 melanoma
[16] = tested on: HOP-92 NSCLC
[17] = tested on: HCT-15 colon
[18] = tested on: NCI-H522 lung
[19] = tested on: SW-620 colon
[20] = tested on: UACC-62 melanoma
[21] = tested on: A549 NSCLC
[22] = tested on: PC-3 prostate
[23] = tested on: OVCAR-4 ovarian
[24] = tested on: SR leukemia
[25] = tested on: KM12 colon
[26] = tested on: HCT-116 colon
[27] = tested on: M14 melanoma
[28] = tested on: MDA-MB-231 breast
[29] = tested on: SK-OV-3 ovarian
[30] = tested on: OVCAR-3 ovarian
[31] = tested on: MDA-MB-435
[32] = tested on: CAKI-1 renal
[33] = tested on: RPMI-8226 leukemia
[34] = tested on: NCI-H226 lung
[35] = tested on: OVCAR-5 ovarian
[36] = tested on: K-562 leukemia
[37] = tested on: SK-MEL-28 melanoma
[38] = tested on: COLO 205 colon
[39] = tested on: A498 renal
[40] = tested on: CCRF-CEM leukemia
[41] = tested on: BT-549 breast
[42] = tested on: DU-145 prostate
[43] = tested on: SK-MEL-5 melanoma
[44] = tested on: MCF7 breast
[45] = tested on: SN12C renal
[46] = tested on: NCI/ADR-RES ovarian
[47] = tested on: HOP-62 NSCLC
[48] = tested on: HS 578T breast
[49] = tested on: NCI-H460 lung
[50] = tested on: SF-268 CNS
[51] = tested on: SNB-75 CNS
[52] = tested on: UO-31 renal
[53] = tested on: ACHN renal
[54] = tested on: EKVX NSCLC
[55] = tested on: SNB-19 CNS
[56] = tested on: MALME-3M melanoma
[57] = tested on: SF-295 CNS
[58] = tested on: DMS 114 small cell lung
[59] = tested on: SNB-78 CNS
[60] = tested on: TK-10 renal
[61] = tested on: DLD-1 colon
[62] = tested on: M19-MEL melanoma

In the case of `CC1(C)CC[C@]2(C(=O)O)CC[C@]3(C)C(=CC[C@@H]4[C@@]5(C)CC[C@H](OC6OC(CO)C(O)C(O)C6OC6OC(CO)C(O)C(O)C6O)C(C)(C)[C@@H]5CC[C@]43C)[C@@H]2C1` (stereo not given in full), the TGI [1] was 36.2 µM, the TGI [2] was 35.2 µM and the TGI [3] was 2.48 µM. The TGI [4] was 30.2 µM, the TGI [5] was 34.6 µM and the TGI [6] was 48.3 µM. The TGI [7] was 37.3 µM, the TGI [8] was 82.4 µM and the TGI [9] was 30.1 µM. The TGI [10] was 53.7 µM, the TGI [11] was 34.8 µM and the TGI [12] was 42.8 µM. It also gave a TGI [13] of 44.8 µM, a TGI [14] of 16.4 µM and a TGI [15] of 42 µM. It also gave a TGI [16] of 31.7 µM, a TGI [17] of 35.3 µM and a TGI [18] of 38 µM. The TGI [19] was 48.3 µM, the TGI [20] was 34.2 µM and the TGI [21] was 33.7 µM. It also gave a TGI [22] of 31.2 µM, a TGI [23] of 30.5 µM and a TGI [24] of 68 µM. The TGI [25] was 29.4 µM, the TGI [26] was 31.9 µM and the TGI [27] was 31.2 µM. The TGI [28] was 51.9 µM, the TGI [29] was 31.9 µM and the TGI [30] was 29.9 µM. It also gave a TGI [31] of 35.7 µM, a TGI [32] of 35.4 µM and a TGI [33] of 62.3 µM. The TGI [34] was 34.7 µM, the TGI [35] was 12.5 µM and the TGI [36] was 44.6 µM. The TGI [37] was 28.9 µM, the TGI [38] was 28.7 µM and the TGI [39] was 34 µM. The TGI [40] was 46.5 µM, the TGI [41] was 36.2 µM and the TGI [42] was 31.4 µM. It also gave a TGI [43] of 33.7 µM, a TGI [44] of 36.7 µM and a TGI [45] of 33.2 µM. The TGI [46] was 49.2 µM, the TGI [47] was 32.7 µM and the TGI [48] was 51.9 µM. The TGI [49] was 41.5 µM, the TGI [50] was 32 µM and the TGI [51] was 36.3 µM. It also gave a TGI [52] of 35.8 µM, a TGI [53] of 32.7 µM and a TGI [54] of 35.4 µM. The TGI [55] was 32.8 µM, the TGI [56] was 30.1 µM and the TGI [57] was 36 µM.

With `O=c1[nH]c(/C=C(\O)c2ccncc2)nc2ccccc12` the TGI [1] was over 100 µM, the TGI [2] was over 100 µM and the TGI [58] was over 100 µM. For the same compound, the TGI [3] was over 100 µM, the TGI [4] was over 100 µM and the TGI [5] was over 100 µM. For the same compound, the TGI [6] was over 100 µM, the TGI [9] was over 100 µM and the TGI [59] was over 100 µM. For the same compound, the TGI [10] was over 100 µM, the TGI [12] was over 100 µM and the TGI [14] was over 100 µM. For the same compound, the TGI [15] was over 100 µM, the TGI [17] was over 100 µM and the TGI [18] was over 100 µM. For the same compound, the TGI [60] was over 100 µM, the TGI [19] was over 100 µM and the TGI [20] was over 100 µM. It also gave a TGI [21] of over 100 µM, a TGI [23] of over 100 µM and a TGI [24] of over 100 µM. The TGI [61] was over 100 µM, the TGI [26] was over 100 µM and the TGI [27] was over 100 µM. It also gave a TGI [29] of over 100 µM, a TGI [30] of over 100 µM and a TGI [32] of over 100 µM. It also gave a TGI [33] of over 100 µM, a TGI [34] of over 100 µM and a TGI [35] of over 100 µM. It also gave a TGI [36] of over 100 µM, a TGI [37] of over 100 µM and a TGI [62] of over 100 µM. It also gave a TGI [38] of over 100 µM, a TGI [39] of over 100 µM and a TGI [40] of over 100 µM. The TGI [43] was over 100 µM, the TGI [45] was over 100 µM and the TGI [47] was over 100 µM. It also gave a TGI [49] of over 100 µM, a TGI [50] of over 100 µM and a TGI [51] of over 100 µM. The TGI [52] was over 100 µM, the TGI [53] was over 100 µM and the TGI [54] was over 100 µM. The TGI [55] was over 100 µM, the TGI [56] was over 100 µM and the TGI [57] was over 100 µM.
